US20030050233A1, “Peptide combination for the treatment of cancer” (DABUR ONCOLOGY PLC, priority 2001, published 2003)
Where a SMILES comes first, the peptide text is derived from it. [ ]: non-standard residue; d: D form. The star is where a group is joined. Ac5c = NC1(C(=O)O)CCCC1; Aib = CC(C)(N)C(=O)O; Butyryl = CCCC(=O)*

Legend:
Format in all cases: cell-based
[1] = system: cAMP in breast cancer cells (MF7); assay: cAMP levels by enzyme linked sandwich immunosorbent assay; conditions: 30 minutes, final peptide concentration 10^-9 M, Forskolin 1 uM
Experimental: Enzyme linked sandwich immunosorbent assay was carried out on breast cancer cells (MF7) to study the modulation in levels of cAMP upon treatment with the peptides and their combinations. The cells were cultured in sterile 6 well plates at a density of 0.5×10^6/well in DMEM supplemented with 10% FCS, and allowed to adhere overnight. The medium was changed to DMEM and the cells were treated with appropriate concentrations of the peptide and its combinations, as shown in Table-IV, for 30 minutes, such that in each case the final peptide concentration was 10^−9M.
The cells were coincubated with Forskolin at a concentration of 1 uM. The cells were scraped using a cell scraper and pelleted. The cell pellet was suspended in appropriate resuspension buffer (50 mM Tris, containing EDTA, 0.2 mM phenyl methyl sulfonyl fluoride (PMSF), 1 ug/ml pepstatin and 0.5 ug/ml leupeptin adjusted to pH 7.4). The cell extracts were transferred to microcentrifuge tubes and centrifuged for 5 minutes at 10000×g. cAMP standards ranging in concentrations from 200 units/ml to 0 units/ml were prepared immediately prior to the start of the assay. Fluorescein isothiocyanate (FITC) conjugated monoclonal antibody directed to cAMP was added to microtitre wells precoated with primary monoclonal antibody against cAMP. 50 ul of sample lysates, and cAMP standards were added in duplicates in the microtitre wells containing both the monoclonals to cAMP. The wells were incubated at room temperature for 2 hours. The microtitre wells were washed thrice with appropriate wash buffer (PBS 50 mM, with Tween 0.5%) and the appropriate dilution of anti FITC horse radish peroxidase conjugate was added and incubated for 30 minutes. The microtitre wells were washed thrice with the wash buffer and subsequently with distilled water. Tetra-methylbenzidine was added to each well and incubated in dark for 30 minutes at room temperature. The absorbance was measured in each well at dual wavelength of 450/595 nm within 30 minutes of the addition of stop solution and the amount of cAMP present in the cell samples calculated.

[2] = system: tyrosine phosphatase in pancreatic cancer cells (MiaPaCa2); assay: Tyrosine phosphatase induction, colorimetric; conditions: 30 minutes, final peptide concentration 10^-9 M
Experimental: The quantitation of tyrosine phosphatase was carried out colorimetrically by using their synthetic biotin labeled tyrosine phosphorylated peptide substrates. The enzyme reaction was quenched by the addition of a specific inhibitor, and the phosphorylated and dephosphorylated substrate is immobilized by binding to the streptavidin coated microtitre plate. The fraction of the unmetabolized substrate is determined by its anti phospho tyrosine antibody directly conjugated to peroxidase.
The cells were cultured in sterile 6 well plates at a density of 0.5×10^6/ well in DMEM supplemented with 10% FCS, and allowed to adhere overnight. The medium was changed to DMEM. The cells were treated with appropriate concentrations peptide and their combinations shown in Table VI, for 30 minutes, such that in each case the final peptide concentration was 10^−9M.
The cells were lysed in appropriate lysis buffer (50 mM Tris, containing 0.2 mM PMSF, 1 ug/ml pepstatin and 0.5 ug/ml leupeptin adjusted to pH 7.4). The cell extracts were transferred to microcentrifuge tubes and centrifuged for 5 minutes at 10000×g.
The quantitation of phosphatase enzyme activity was performed with 30 ul of specific substrates and the reaction was quenched with the addition of 100 uM sodium orthvanadate. […] After 3 washings, 100 ul of the substrate POD was added to the wells, and the absorbance was read at 405 nm.

[3] = system: Caspase-3 in PA-1 (Ovary) cells; assay: Caspase-3 induction, colorimetric DEVD-pNA, PA-1; conditions: 6 hours, each peptide 10^-8 M
Experimental: PA-1 (Ovary) cells were cultured in 25 cm^2 tissue culture flasks at 37° C. in a humidified incubator containing 5% CO2. When cultures reached pre-confluence individual peptides of the combination and different combinations of the peptides as shown in Table VII were added to different flasks such that the final concentration of each peptide in the flask was 10^−8 M. The untreated flasks served as controls. The cells were incubated with drug for 6 hours.
After 6 hours of incubation cells were collected by trypsin treatment followed by centrifugation at 2000 r.p.m. for 10 minutes. The supernatant was gently removed and discarded and Lysis Buffer was added to the cell pellet (25 ul of lysis buffer per 1×10^4 cells I a 15 ml conical tube) and incubated on ice for 10 minutes and centrifuged at 10,000-×g for 1 minute. 50 ul of supernatant(cell lysate) was transferred to the wells of a 96-well plate. 2×Reaction buffer was prepared by adding 10 ul of fresh DTT stock per 1 ml of 2×Reaction Buffer. […] Following incubation the plate was read on a microplate reader at 405 nm-wavelength light the level of caspase enzymatic activity in the cell lysate was directly proportional to the color reaction. The induction of caspase activity by the subcombinations was calculated as a percentage of control using the formula [(Sample OD/Control OD)−1]*100.

[4] = system: VEGF secreted by human breast adenocarcinoma cells (MDA.MB.453); assay: VEGF secretion ELISA; conditions: 4 hours, each peptide 10^-8 M
Experimental: Human breast adenocarcinoma cells (MDA.MB.453) were plated at the density of 8-10×10^5 cells per 2 ml in a six well plate. After an overnight incubation of cells at 37° C., individual peptides and different combinations of the peptides as shown in Table VIII were added to different wells such that the final concentration of each peptide was 10^−8 M. The untreated wells served as controls. The plates were incubated for 4 hours at 37° C. The medium was collected from all the wells (control and treated) and spun down at 2000 r.p.m to remove the cellular material. The supernatant was collected and used for ELISA (Quantikine human VEGF, R&D Systems). The assay employs the quantitative sandwich enzyme immunoassay technique. A monoclonal antibody specific for VEGF has been pre-coated onto a microplate. Standards and samples were pipeted into the wells and VEGF present was bound by the immobilized antibody. After washing away the unbound substances, an enzyme-linked polyclonal antibody specific for VEGF was added to the wells. Following a wash to remove any unbound antibody-enzyme reagent, a substrate solution was added to the wells and color developed in proportion to the amount of VEGF bound in the initial step. The optical density of each well was determined within 30 minutes using a microplate reader set to 450 nm and reference wavelength at 540 nm.

CSCC[C@H](NC(=O)[C@@H](N)CC(C)C)C(=O)N[C@@H](Cc1ccc(O)cc1)C(=O)N1CCC[C@H]1C(=O)N[C@H](C(=O)N[C@@H](Cc1ccc(O)cc1)C(=O)N[C@@H](CC(C)C)C(=O)N[C@@H](CCCCN)C(=O)O)[C@@H](C)O [SEQ ID NO:1, Leu-Met-Tyr-Pro-Thr-Tyr-Leu-Lys-OH] (H-LMYPTYLK-OH; N-terminus assumed)
Camp (% of Control) [1]: 30%

CCCC(=O)N[C@H](Cc1ccccc1)C(=O)N[C@@H](CCC(N)=O)C(=O)N[C@@H](Cc1c[nH]c2ccccc12)C(=O)N[C@@H](C)C(=O)N[C@H](C(=O)NC(C)(C)C(=O)N[C@@H](Cc1c[nH]cn1)C(=O)N[C@@H](CC(C)C)C(N)=O)C(C)C [SEQ ID NO:2, Butanoyl-D-Phe-Gln-Trp-Ala-Val-Aib-His-Leu-NH2] (Butyryl-[dF]QWAV[Aib]HL-NH2)
Camp (% of Control) [1]: 18%

CC(C)C[C@H](NC(=O)[C@@H](Cc1c[nH]c2ccccc12)NC(=O)[C@H](Cc1ccccc1)NC(=O)[C@@H](Cc1c[nH]c2ccccc12)NC(=O)[C@H](CCC(N)=O)NC(=O)[C@@H](Cc1ccccc1)NC(=O)[C@@H]1CCCN1C(=O)[C@H](CCCCN)NC(=O)[C@@H]1CCCN1C(=O)[C@H](N)CCCNC(=N)N)C(=O)NC1(C(N)=O)CCCC1 [SEQ ID NO:3, D-Arg-Pro-Lys-Pro-D-Phe-Gln-D-Trp-Phe-D-Trp-Leu-Ac5c-NH2] (H-[dR]PKP[dF]Q[dW]F[dW]L[Ac5c]-NH2; N-terminus assumed)
Camp (% of Control) [1]: 14% | % Induction of Tyrosine phosphatase [2]: 12% | % INDUCTION of Caspase-3 [3]: 19.5% | % INHIBITION of VEGF secretion [4]: 17.5 ± 1.9%

C[C@@H](O)[C@H](NC(=O)[C@H]1NC(=O)C2(CCCC2)NC(=O)[C@H](CCCN)NC(=O)[C@@H](Cc2c[nH]c3ccccc23)NC(=O)[C@H](Cc2ccc(O)cc2)NC(=O)[C@@H](NC(=O)[C@H](N)Cc2ccccc2)CSSC1(C)C)C(N)=O [SEQ ID NO:4, D-Phe-Cys-Tyr-D-Trp-Om-Ac5c -Pen-Thr-NH2]
Camp (% of Control) [1]: 15% | % Induction of Tyrosine phosphatase [2]: 10% | % INDUCTION of Caspase-3 [3]: 12.4% | % INHIBITION of VEGF secretion [4]: 12.4 ± 2.3%
